Measured values: patent publication US9493412B2, “Pyrrolinone carboxamide compounds useful as endothelial lipase inhibitors” (BRISTOL-MYERS SQUIBB COMPANY, priority 2011, dated 2016)

Target: endothelial lipase (EL) (Homo sapiens (Human), UniProt Q9Y5X9)
Assay: Endothelial lipase (EL) enzymatic assay with fluorescent substrate A10070 in DMPG vesicles
Assay type: biochemical
Conditions: conditioned media from HT-1080 cells overexpressing endogenous EL; 20 min preincubation at 37° C.; read-out: HLE_EL_CRC IC50
Procedure: Endothelial lipase activity was measured using a fluorescent substrate, A10070, (Invitrogen, CA) doped into an artificial vesicle containing DMPG (Avanti Polar Lipids) as the excipient. Vesicles were prepared by combining 285 uL of 1 mM
DMPG in a 1:1 mixture of MeOH and CHCl3 with 15 uL of 1 mM A10070 in a 1:1 mixture of MeOH and CHCl3. The mixture was dried under nitrogen and resuspended in 150 uL of 50 mM HEPES pH 8.0 buffer containing 100 mM NaCl and 0.2 mM EDTA. The sample was allowed to sit at rt for 15 min and then was sonicated 3×4 mins on ice with a Branson Sonicator using duty cycle 1. This preparation provides vesicles with a mole fraction of 0.05 for the FRET substrate.
The enzymatic assay was measured using white, opaque 96-well half area plates. Each well contained 60 uL of assay buffer (50 mM HEPES pH 8.0, 50 mM NaCl and 1 mM CaCl2) and 2 ul of a DMSO solution containing compound of interest. Conditioned media obtained from HT-1080 cells, which were transformed by RAGE technology (Athersys) to overexpress endogenous EL, was added and the reaction was allowed to incubate for 20 min at 37° C. with gentle agitation. The reaction was started by the addition of 20 uL of a 1:4 dilution of vesicles. The final total reaction volume was 100 uL. The reaction rates were measured on a Gemini plate reader with an excitation wavelength of 488 nm and a emission of 530 nm. Readings were taken every 20 seconds for 10 min with agitation between each reading. The slope of the linear portion of the readout was used to calculate the rate of the reaction.
The exemplified examples disclosed in the present invention were tested in the EL assay described above and found having EL inhibitory activity.

Chain of endothelial lipase (EL) (Q9Y5X9 21-500): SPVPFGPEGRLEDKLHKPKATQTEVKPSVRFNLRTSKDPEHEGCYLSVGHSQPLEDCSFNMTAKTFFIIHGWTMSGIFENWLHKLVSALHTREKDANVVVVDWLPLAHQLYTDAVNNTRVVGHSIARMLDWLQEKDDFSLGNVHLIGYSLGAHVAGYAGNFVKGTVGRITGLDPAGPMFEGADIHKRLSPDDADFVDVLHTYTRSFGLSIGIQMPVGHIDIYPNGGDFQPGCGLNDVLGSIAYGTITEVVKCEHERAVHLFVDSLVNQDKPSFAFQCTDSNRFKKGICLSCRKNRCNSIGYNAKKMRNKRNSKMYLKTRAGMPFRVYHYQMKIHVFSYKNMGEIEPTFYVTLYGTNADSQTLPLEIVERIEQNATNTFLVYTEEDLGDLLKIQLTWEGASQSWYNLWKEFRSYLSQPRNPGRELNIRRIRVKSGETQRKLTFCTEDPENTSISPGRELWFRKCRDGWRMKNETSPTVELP

IC50 | Compound
270 nM | CN1CC(C(=O)NCc2ccc(OC3CCOCC3)cc2)=C(O)C1=O [Example 22, 4-hydroxy-1-methyl-5-oxo-N-(4-(tetrahydro-2H-pyran-4-yloxy)benzyl)-2,5-dihydro-1H-pyrrole-3-carboxamide]
241 nM | CC(=O)NCc1ccc(-c2cccc(CNC(=O)C3=C(O)C(=O)N(C)C3)c2)cc1 [Example 85, N-((4′-(acetamidomethyl)biphenyl-3-yl)methyl)-4-hydroxy-1-methyl-5-oxo-2,5-dihydro-1H-pyrrole-3-carboxamide]
285 nM | CC(=O)c1cccc(-c2cccc(CNC(=O)C3=C(O)C(=O)N(C)C3)c2)c1 [Example 66, N-((3′-acetylbiphenyl-3-yl)methyl)-4-hydroxy-1-methyl-5-oxo-2,5-dihydro-1H-pyrrole-3-carboxamide]
49.6 nM | C[C@@H](NC(=O)C1=C(O)C(=O)N(C)C1)c1cccc(-c2cccc(C(N)=O)c2)c1 [Example 103, (R)-N-(1-(3′-carbamoylbiphenyl-3-yl)ethyl)-4-hydroxy-1-methyl-5-oxo-2,5-dihydro-1H-pyrrole-3-carboxamide]
9920 nM | CN(CCN1CC(C(=O)N[C@H]2CC[C@@H](c3ccccc3)CC2)=C(O)C1=O)C(=O)/C=C/C(F)(F)F [Example 178, 4-hydroxy-5-oxo-N-(cis-4-phenylcyclohexyl)-1-(2-((E)-4,4,4-trifluoro-N-methylbut-2-enamido)ethyl)-2,5-dihydro-1H-pyrrole-3-carboxamide]
8470 nM | CN1CC(C(=O)NC2CC[C@H](c3ccccc3)C2)=C(O)C1=O (single isomer, unassigned; isomer a) [Example 173]
246 nM | C[C@@H](NC(=O)C1=C(O)C(=O)N(C)C1)c1cccc(-c2cccc(F)c2)c1 [Example 92, (R)-N-(1-(3′-fluorobiphenyl-3-yl)ethyl)-4-hydroxy-1-methyl-5-oxo-2,5-dihydro-1H-pyrrole-3-carboxamide]
257 nM | CN1CC(C(=O)NCc2cccc(-c3ccc(CNS(C)(=O)=O)cc3)c2)=C(O)C1=O [Example 83, 4-hydroxy-1-methyl-N-((4′-(methylsulfonamidomethyl)biphenyl-3-yl)methyl)-5-oxo-2,5-dihydro-1H-pyrrole-3-carboxamide]
8250 nM | CN1CC(N2CC(C(=O)N[C@H]3CC[C@@H](c4ccccc4)CC3)=C(O)C2=O)CC1=O (stereo partly drawn) [Example 196, 4-hydroxy-1-(1-methyl-5-oxopyrrolidin-3-yl)-5-oxo-N-(cis-4-phenylcyclohexyl)-2,5-dihydro-1H-pyrrole-3-carboxamide]
7170 nM | O=C(N[C@H]1CC[C@@H](c2ccccc2)CC1)C1=C(O)C(=O)N(CC(F)(F)C(F)(F)F)C1 [Example 169, 4-hydroxy-5-oxo-1-(2,2,3,3,3-pentafluoropropyl)-N-(cis-4-phenylcyclohexyl)-2,5-dihydro-1H-pyrrole-3-carboxamide]
271 nM | C[C@@H](NC(=O)C1=C(O)C(=O)N(C)C1)c1cccc(-c2cccc(C(F)(F)F)c2)c1 [Example 91, (R)-4-hydroxy-1-methyl-5-oxo-N-(1-(3′-(trifluoromethyl)biphenyl-3-yl)ethyl)-2,5-dihydro-1H-pyrrole-3-carboxamide]
4720 nM | O=C(N[C@H]1CC[C@@H](c2ccccc2)CC1)C1=C(O)C(=O)N(CCS(=O)(=O)c2ccccc2)C1 [Example 172, 4-hydroxy-5-oxo-N-(cis-4-phenylcyclohexyl)-1-(2-(phenylsulfonyl)ethyl)-2,5-dihydro-1H-pyrrole-3-carboxamide]
277 nM | C[C@@H](NC(=O)C1=C(O)C(=O)N(C)C1)c1cccc(-c2cccc(C#N)c2)c1 [Example 96, (R)-N-(1-(3′-cyanobiphenyl-3-yl)ethyl)-4-hydroxy-1-methyl-5-oxo-2,5-dihydro-1H-pyrrole-3-carboxamide]
250 nM | CN1CC(C(=O)NCc2cccc(-c3ccccc3F)c2)=C(O)C1=O [Example 63, N-((2′-fluorobiphenyl-3-yl)methyl)-4-hydroxy-1-methyl-5-oxo-2,5-dihydro-1H-pyrrole-3-carboxamide]
49.5 nM | CN1CC(C(=O)NCc2ccc(Oc3ccc(F)cc3)cc2)=C(O)C1=O [Example 8, N-(4-(4-fluorophenoxy)benzyl)-4-hydroxy-1-methyl-5-oxo-2,5-dihydro-1H-pyrrole-3-carboxamide]
32.1 nM | Cc1ccc(Oc2ccc(CNC(=O)C3=C(O)C(=O)N(C)C3)cc2)c(C)c1 [Example 34, N-(4-(2,4-dimethylphenoxy)benzyl)-4-hydroxy-1-methyl-5-oxo-2,5-dihydro-1H-pyrrole-3-carboxamide]
43.5 nM | CCN1CC(C(=O)N[C@@H]2CCc3cc(-c4ccccc4)ccc32)=C(O)C1=O [Example 218, (R)-1-ethyl-4-hydroxy-5-oxo-N-(5-phenyl-2,3-dihydro-1H-inden-1-yl)-2,5-dihydro-1H-pyrrole-3-carboxamide]
4840 nM | CN1CC(C(=O)NCC2CCN(C(=O)c3ccc(Cl)c(Cl)c3)CC2)=C(O)C1=O [Example 157, N-((1-(3,4-dichlorobenzoyl)piperidin-4-yl)methyl)-4-hydroxy-1-methyl-5-oxo-2,5-dihydro-1H-pyrrole-3-carboxamide]
50 nM | CCN1CC(C(=O)N[C@@H]2CCC(c3ccccc3)c3ccccc32)=C(O)C1=O (stereo partly drawn) [Example 146, 1-ethyl-4-hydroxy-5-oxo-N-((1R)-4-phenyl-1,2,3,4-tetrahydronaphthalen-1-yl)-2,5-dihydro-1H-pyrrole-3-carboxamide]
254 nM | CC(=O)NCc1ccc(-c2cccc([C@@H](C)NC(=O)C3=C(O)C(=O)N(C)C3)c2)cc1 [Example 104, (R)-N-(1-(4′-(acetamidomethyl)biphenyl-3-yl)ethyl)-4-hydroxy-1-methyl-5-oxo-2,5-dihydro-1H-pyrrole-3-carboxamide]
460 nM | CCN1CC(C(=O)NCC2CCc3cnc(-c4ccc(Cl)c(Cl)c4)n3C2)=C(O)C1=O (centres unmarked) [Example 214, N-((3-(3,4-Dichlorophenyl)-5,6,7,8-tetrahydroimidazo[1,5-a]pyridin-6-yl)methyl)-1-ethyl-4-hydroxy-5-oxo-2,5-dihydro-1H-pyrrole-3-carboxamide]
252 nM | O=C(N[C@H]1CC[C@@H](c2ccccc2)CC1)C1=C(O)C(=O)N(CCCC(F)(F)F)C1 [Example 168, 4-hydroxy-5-oxo-N-(cis-4-phenylcyclohexyl)-1-(4,4,4-trifluorobutyl)-2,5-dihydro-1H-pyrrole-3-carboxamide]
15.4 nM | CC(C)CN1CC(C(=O)NCCCCc2nc(-c3ccc(Cl)c(Cl)c3)no2)=C(O)C1=O [Example 21, N-(4-(3-(3,4-dichlorophenyl)-1,2,4-oxadiazol-5-yl)butyl)-4-hydroxy-1-isobutyl-5-oxo-2,5-dihydro-1H-pyrrole-3-carboxamide]
5730 nM | CNCCCN1CC(C(=O)N[C@H]2CC[C@@H](c3ccccc3)CC2)=C(O)C1=O [Example 181, 4-hydroxy-1-(3-(methylamino)propyl)-5-oxo-N-(cis-4-phenylcyclohexyl)-2,5-dihydro-1H-pyrrole-3-carboxamide]
6570 nM | CN(CCN1CC(C(=O)N[C@H]2CC[C@@H](c3ccccc3)CC2)=C(O)C1=O)c1ccccc1 [Example 210, 4-hydroxy-1-(2-(methyl(phenyl)amino)ethyl)-5-oxo-N-(cis-4-phenylcyclohexyl)-2,5-dihydro-1H-pyrrole-3-carboxamide]
246 nM | CN1CC(C(=O)NCc2cccc(-c3ccccc3Cl)c2)=C(O)C1=O [Example 62, N-((2′-chlorobiphenyl-3-yl)methyl)-4-hydroxy-1-methyl-5-oxo-2,5-dihydro-1H-pyrrole-3-carboxamide]
3090 nM | O=C(N[C@H]1CC[C@@H](c2ccccc2)CC1)C1=C(O)C(=O)N(C2CCN(c3ccc(F)cc3)CC2)C1 [Example 179, 1-(1-(4-fluorophenyl)piperidin-4-yl)-4-hydroxy-5-oxo-N-(cis-4-phenylcyclohexyl)-2,5-dihydro-1H-pyrrole-3-carboxamide]
27 nM | CN1CC(C(=O)NCc2ccccc2-c2ccccc2)=C(O)C1=O [Example 18, N-(biphenyl-2-ylmethyl)-4-hydroxy-1-methyl-5-oxo-2,5-dihydro-1H-pyrrole-3-carboxamide]
9300 nM | CN1CC(C(=O)NCc2ccc(C(=O)N3CCCCC3)cc2)=C(O)C1=O [Example 24, 4-hydroxy-1-methyl-5-oxo-N-(4-(piperidine-1-carbonyl)benzyl)-2,5-dihydro-1H-pyrrole-3-carboxamide]
